Test results reported in US20210070748A1, “INHIBITORS OF BRUTONS TYROSINE KINASE” (Pharmacyclics LLC, priority 2015, published 2021).

What was measured:
Assay type in all cases: biochemical
EGFR = EGFR (Homo sapiens, UniProt P00533); experiment: Inhibition of a panel of kinases, in vitro HotSpot kinase assay: EGFR; conditions: D-compounds panel data; 1 μM ATP
Experimental: (§1) The degree of inhibition of a panel of kinases is determined using the in vitro HotSpot kinase assay (purified enzymes, ^33P-ATP, an appropriate substrate and 1 μM ATP).

LCK = LCK (Homo sapiens, UniProt P06239); experiment: Inhibition of a panel of kinases, in vitro HotSpot kinase assay: LCK; conditions: D-compounds panel data; 1 μM ATP; read-out: IC50 LCK
Sequence of LCK (P06239 whole entry): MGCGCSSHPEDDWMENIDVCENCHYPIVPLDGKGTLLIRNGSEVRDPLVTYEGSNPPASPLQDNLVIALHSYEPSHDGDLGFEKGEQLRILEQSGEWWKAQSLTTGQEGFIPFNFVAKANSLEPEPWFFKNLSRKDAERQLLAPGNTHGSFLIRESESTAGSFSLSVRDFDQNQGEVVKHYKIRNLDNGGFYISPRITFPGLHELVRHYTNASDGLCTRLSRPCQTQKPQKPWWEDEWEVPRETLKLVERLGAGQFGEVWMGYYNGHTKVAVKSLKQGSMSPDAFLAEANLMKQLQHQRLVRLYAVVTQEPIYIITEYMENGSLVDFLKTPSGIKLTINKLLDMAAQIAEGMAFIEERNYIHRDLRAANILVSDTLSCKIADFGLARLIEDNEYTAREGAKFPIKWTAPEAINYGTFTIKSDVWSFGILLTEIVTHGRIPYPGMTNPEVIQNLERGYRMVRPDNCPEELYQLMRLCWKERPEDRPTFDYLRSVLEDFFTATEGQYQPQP

ITK = molecular target: T1, ITK (Homo sapiens, UniProt Q08881); experiment: Inhibition of a panel of kinases, in vitro HotSpot kinase assay: ITK; conditions: D-compounds panel data; 1 μM ATP
T1 sequence (Q08881 1-620): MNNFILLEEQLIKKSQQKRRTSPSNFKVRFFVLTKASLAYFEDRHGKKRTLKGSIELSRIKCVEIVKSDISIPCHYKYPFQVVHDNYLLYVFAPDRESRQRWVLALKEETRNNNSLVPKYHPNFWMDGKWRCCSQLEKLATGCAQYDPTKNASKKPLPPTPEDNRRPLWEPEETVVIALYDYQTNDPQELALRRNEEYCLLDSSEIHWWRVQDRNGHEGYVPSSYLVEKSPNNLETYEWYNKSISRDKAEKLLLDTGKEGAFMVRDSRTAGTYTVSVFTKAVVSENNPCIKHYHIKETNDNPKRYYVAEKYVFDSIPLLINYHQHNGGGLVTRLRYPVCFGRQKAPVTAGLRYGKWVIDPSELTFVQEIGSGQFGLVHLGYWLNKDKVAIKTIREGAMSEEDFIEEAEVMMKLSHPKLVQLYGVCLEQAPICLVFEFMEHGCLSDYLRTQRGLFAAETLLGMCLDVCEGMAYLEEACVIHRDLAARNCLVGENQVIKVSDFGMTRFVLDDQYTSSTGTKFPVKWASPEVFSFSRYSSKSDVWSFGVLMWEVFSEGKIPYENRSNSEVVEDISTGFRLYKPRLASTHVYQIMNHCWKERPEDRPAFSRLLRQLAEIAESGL
Experimental: as §1

TEC = molecular target: T2, TEC (Homo sapiens, UniProt P42680); experiment: Inhibition of a panel of kinases, in vitro HotSpot kinase assay: TEC; conditions: D-compounds panel data; 1 μM ATP
T2 sequence (P42680 1-631): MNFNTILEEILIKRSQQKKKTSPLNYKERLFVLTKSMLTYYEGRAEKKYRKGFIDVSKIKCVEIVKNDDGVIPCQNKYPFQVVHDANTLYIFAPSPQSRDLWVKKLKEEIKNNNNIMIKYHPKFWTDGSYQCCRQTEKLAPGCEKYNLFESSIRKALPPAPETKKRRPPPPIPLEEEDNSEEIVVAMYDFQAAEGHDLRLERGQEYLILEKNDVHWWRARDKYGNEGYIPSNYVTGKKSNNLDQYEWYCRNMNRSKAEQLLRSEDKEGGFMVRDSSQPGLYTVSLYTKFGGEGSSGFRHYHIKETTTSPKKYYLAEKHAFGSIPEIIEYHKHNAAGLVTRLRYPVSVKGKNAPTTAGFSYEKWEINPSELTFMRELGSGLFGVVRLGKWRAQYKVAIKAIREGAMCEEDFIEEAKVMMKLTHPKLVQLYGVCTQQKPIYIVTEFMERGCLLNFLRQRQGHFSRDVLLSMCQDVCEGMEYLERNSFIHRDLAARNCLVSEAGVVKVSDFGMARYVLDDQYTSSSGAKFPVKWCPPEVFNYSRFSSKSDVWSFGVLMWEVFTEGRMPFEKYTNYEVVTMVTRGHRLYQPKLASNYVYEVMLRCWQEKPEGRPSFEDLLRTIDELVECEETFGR
Experimental: as §1

Sequence of EGFR (P00533 25-1210): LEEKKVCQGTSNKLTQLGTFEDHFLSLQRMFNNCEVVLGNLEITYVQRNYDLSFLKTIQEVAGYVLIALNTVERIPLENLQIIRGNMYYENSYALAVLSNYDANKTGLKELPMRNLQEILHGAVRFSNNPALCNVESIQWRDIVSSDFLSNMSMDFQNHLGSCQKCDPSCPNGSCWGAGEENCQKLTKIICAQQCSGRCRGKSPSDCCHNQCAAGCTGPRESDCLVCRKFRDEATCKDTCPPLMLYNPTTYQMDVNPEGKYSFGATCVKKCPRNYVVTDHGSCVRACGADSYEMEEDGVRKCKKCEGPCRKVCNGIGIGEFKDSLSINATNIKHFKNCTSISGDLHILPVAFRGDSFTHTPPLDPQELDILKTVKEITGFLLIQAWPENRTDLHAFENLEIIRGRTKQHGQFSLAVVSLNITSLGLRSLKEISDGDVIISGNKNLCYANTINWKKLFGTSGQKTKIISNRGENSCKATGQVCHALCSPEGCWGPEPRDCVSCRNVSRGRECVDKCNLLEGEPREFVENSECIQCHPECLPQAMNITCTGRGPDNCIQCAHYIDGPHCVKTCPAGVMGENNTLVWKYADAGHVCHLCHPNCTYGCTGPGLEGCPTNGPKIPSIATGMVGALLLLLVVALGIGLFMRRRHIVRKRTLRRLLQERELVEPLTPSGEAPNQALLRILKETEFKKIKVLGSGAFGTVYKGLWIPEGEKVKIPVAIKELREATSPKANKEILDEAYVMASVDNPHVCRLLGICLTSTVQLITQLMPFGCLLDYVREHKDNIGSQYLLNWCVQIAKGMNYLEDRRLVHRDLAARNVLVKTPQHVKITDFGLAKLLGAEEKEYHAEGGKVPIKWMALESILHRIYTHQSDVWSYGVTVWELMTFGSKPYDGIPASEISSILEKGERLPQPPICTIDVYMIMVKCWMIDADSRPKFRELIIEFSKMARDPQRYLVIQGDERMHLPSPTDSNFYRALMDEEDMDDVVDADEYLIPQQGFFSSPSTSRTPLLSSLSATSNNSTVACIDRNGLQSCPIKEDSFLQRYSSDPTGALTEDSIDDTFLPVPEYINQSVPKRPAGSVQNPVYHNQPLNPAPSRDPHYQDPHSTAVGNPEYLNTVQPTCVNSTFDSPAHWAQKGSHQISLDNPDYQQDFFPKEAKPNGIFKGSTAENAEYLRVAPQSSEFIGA

IC50 (EGFR): 0.1 to 1 µM
IC50 (LCK): 0.01 to 0.1 µM
IC50 (ITK): 1 to 10 µM
IC50 (TEC): 1 to 10 µM
SMILES: CN1CCN(C(=O)c2ccc(Nc3nc(N[C@H]4CC[C@H](NC(=O)N(C)C)CC4)cnc3C(N)=O)cc2)CC1 [Example D-69, 3-{[4-(4-methylpiperazine-1-carbonyl)phenyl]amino}-5-{[(1 r,4r)-4-[(dimethylcarbamoyl)amino]cyclohexyl]amino}pyrazine-2-carboxamide]
